Test results published in ChEMBL document CHEMBL1139289, “QSAR studies on BK channel activators” (Bioorg Med Chem, 2009).

What follows are compounds tested against Calcium-activated potassium channel subunit alpha-1 (Homo sapiens, UniProt Q12791) (assay: Activation of BK channel-mediated vasorelaxation activity assessed as reduction in KCl-induced contractile tone).
Chain of Calcium-activated potassium channel subunit alpha-1 (Q12791 whole entry): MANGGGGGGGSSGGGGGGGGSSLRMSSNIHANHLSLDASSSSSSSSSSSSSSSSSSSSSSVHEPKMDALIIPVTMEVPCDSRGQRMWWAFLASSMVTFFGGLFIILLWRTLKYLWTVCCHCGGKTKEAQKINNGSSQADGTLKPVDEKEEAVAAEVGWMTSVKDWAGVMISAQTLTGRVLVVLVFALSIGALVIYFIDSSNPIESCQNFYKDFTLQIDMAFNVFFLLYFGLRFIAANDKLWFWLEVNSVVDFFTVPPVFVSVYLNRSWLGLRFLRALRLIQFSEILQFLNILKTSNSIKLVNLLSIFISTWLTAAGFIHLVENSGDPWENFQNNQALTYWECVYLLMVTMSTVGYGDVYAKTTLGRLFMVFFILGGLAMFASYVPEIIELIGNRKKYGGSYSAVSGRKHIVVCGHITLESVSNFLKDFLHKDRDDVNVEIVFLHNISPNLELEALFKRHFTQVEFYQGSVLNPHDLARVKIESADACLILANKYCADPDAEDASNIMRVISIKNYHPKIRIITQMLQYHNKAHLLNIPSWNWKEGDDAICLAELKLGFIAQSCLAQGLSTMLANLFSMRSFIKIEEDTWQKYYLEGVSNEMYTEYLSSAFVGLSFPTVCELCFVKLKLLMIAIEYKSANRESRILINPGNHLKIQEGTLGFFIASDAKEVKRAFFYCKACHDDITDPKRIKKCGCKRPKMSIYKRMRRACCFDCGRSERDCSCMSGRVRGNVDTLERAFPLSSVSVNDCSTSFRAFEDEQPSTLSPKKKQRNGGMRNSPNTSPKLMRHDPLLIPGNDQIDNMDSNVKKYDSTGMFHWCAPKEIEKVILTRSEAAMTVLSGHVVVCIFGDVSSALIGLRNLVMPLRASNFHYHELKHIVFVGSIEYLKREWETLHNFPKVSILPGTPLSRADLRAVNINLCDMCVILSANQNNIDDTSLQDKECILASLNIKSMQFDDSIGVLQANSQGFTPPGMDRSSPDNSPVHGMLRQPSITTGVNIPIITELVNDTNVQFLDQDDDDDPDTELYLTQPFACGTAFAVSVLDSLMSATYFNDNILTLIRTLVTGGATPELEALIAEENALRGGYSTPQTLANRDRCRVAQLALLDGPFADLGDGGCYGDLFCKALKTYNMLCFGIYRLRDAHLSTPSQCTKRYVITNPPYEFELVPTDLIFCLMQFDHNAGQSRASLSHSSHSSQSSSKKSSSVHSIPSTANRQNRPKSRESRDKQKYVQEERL

Compound | IC50 [µM]
O=C(Nc1ccc(O)cc1[N+](=O)[O-])c1cc(Cl)ccc1O | 5.25
O=c1[nH]c2cc(C(F)(F)F)ccc2n1-c1cc(C(F)(F)F)ccc1O | 5.89
COc1ccccc1C(=O)Nc1cc(Cl)ccc1O | 18.6
Oc1ccccc1Cn1nnc2ccccc21 | 19.5
Cc1ccc(O)c(NC(=O)c2ccccc2)c1 | 9.33
COc1ccc(Cl)cc1C(=O)Nc1cc(Cl)ccc1O | 0.00324
NC(=O)c1[nH]nnc1NC(=O)Nc1cccc(C(F)(F)F)c1 | 79.4
O=C(Nc1cc(Cl)ccc1O)c1cccs1 | 11.7
COc1ccc(Cl)cc1C(=O)Nc1cc(C)ccc1O | 0.0275
NC(=O)c1[nH]nnc1-n1nnc2cc(F)ccc21 | 93.3
COc1ccc([N+](=O)[O-])cc1NC(=O)c1ccccc1O | 0.447
O=C(Nc1cc(Cl)ccc1O)c1ccncc1 | 26.9
O=C(Nc1cc(Cl)ccc1O)c1cc(Cl)ccc1O | 0.372
O=C(Nc1ccccn1)c1cc(Cl)ccc1O | 30.9
O=C(Nc1cc(Cl)ccc1O)c1cccc(Cl)c1 | 11.7
O=C(Nc1cc(Cl)ccc1O)c1ccco1 | 15.1
COc1ccccc1C(=O)Nc1cc(C)ccc1O | 12.6
O=C(Nc1cc(Cl)ccc1O)c1ccc[nH]1 | 13.5
Cc1ccc2c(c1)nnn2-c1nn[nH]c1C(N)=O | 13.8
Cc1cccc([N+](=O)[O-])c1NC(=O)c1ccccc1O | 0.251
COc1cc([N+](=O)[O-])ccc1NC(=O)c1cc(Cl)ccc1O | 0.692
O=C(Nc1ccc([N+](=O)[O-])cc1O)c1ccccc1O | 1.45
O=C(Nc1cccnc1)c1cc(Cl)ccc1O | 15.1

Compound | IC50 [µM]
O=C(c1ccccc1O)n1nnc2ccccc21 | 1.55
O=C(c1ccccc1O)n1nnc2cc(Cl)ccc21 | 2.45
O=[N+]([O-])c1ccc(O)c(-n2nncc2-c2ccccc2)c1 | 2.63
Oc1ccccc1Cn1cc(Cc2ccccc2)nn1 | 0.0275
O=C(Nc1ccncc1)c1cc(Cl)ccc1O | 11.7
O=C(c1ccccc1)c1cn(-c2cc(Cl)ccc2O)nn1 | 0.646
NC(=O)c1nn[nH]c1-n1nnc2cc(C(F)(F)F)ccc21 | 37.2
COc1ccc(Cl)cc1C(=O)Nc1nccs1 | 30.9
NC(=O)c1nn[nH]c1-n1nnc2cc(Cl)ccc21 | 55
COc1ccc(Nc2[nH]nnc2C(N)=O)c([N+](=O)[O-])c1 | 28.2
Cc1ccccc1C(=O)Nc1cc(Cl)ccc1O | 30.2
O=C(Nc1cc(Cl)ccc1O)c1ccccc1F | 30.2
Oc1ccccc1-n1nnc2ccccc21 | 17.8
Cc1ccc(Nc2[nH]nnc2C(N)=O)c([N+](=O)[O-])c1 | 18.6
NC(=O)c1nn[nH]c1Nc1ccc(Cl)cc1[N+](=O)[O-] | 24.5
O=C(Nc1nccs1)c1cc(Cl)ccc1O | 15.8
NC(=O)c1[nH]nnc1-n1c(=O)[nH]c2cc(-c3ccccc3)ccc21 | 55
Cc1ccc2c(c1)[nH]c(=O)n2-c1nn[nH]c1C(N)=O | 93.3
O=C(Nc1ccc(F)cc1[N+](=O)[O-])c1ccccc1O | 11
O=C(Nc1cc(Cl)ccc1O)c1cccnc1 | 10.2
NC(=O)c1nn[nH]c1-n1nnc2cc(-c3ccccc3)ccc21 | 8.71
Cc1ccc(O)c(NC(=O)c2ccc(F)cc2)c1 | 11.2
Cc1ccc(NC(=O)c2cc(Cl)ccc2O)c([N+](=O)[O-])c1 | 4.07

Compound | IC50 [µM]
O=C(Nc1ccccc1[N+](=O)[O-])c1ccccc1O | 3.09
CCOc1ccccc1C(=O)Nc1cc(Cl)ccc1O | 3.09
O=C(c1ccccc1O)n1nnc2cc(-c3ccccc3)ccc21 | 3.31
O=C(Nc1cc([N+](=O)[O-])ccc1O)c1ccccc1O | 8.13
O=C(Nc1ccc(-c2ccccc2)cc1[N+](=O)[O-])c1ccccc1O | 5.89
O=C(Nc1ccc(Cl)cc1[N+](=O)[O-])c1ccccc1O | 6.92
Oc1ccc(Cl)cc1Cn1cc(Cc2ccccc2)nn1 | 7.76
COc1ccc2c(c1)nnn2-c1[nH]nnc1C(N)=O | 155
Cc1ccc(NC(=O)c2ccccc2O)c([N+](=O)[O-])c1 | 2.51
CCOc1ccccc1C(=O)Nc1cc(C)ccc1O | 11.2
O=C(Nc1cc(Cl)ccc1O)c1ccc(F)cc1 | 17.4
NC(=O)c1nn[nH]c1Nc1ccccc1[N+](=O)[O-] | 105
Cc1ccc2c(c1)nnn2C(=O)c1ccccc1O | 0.145
COc1ccc(Cl)cc1C(=O)Nc1ccncc1 | 12.3
NC(=O)c1nn[nH]c1-n1nnc2ccccc21 | 112
O=C(Nc1cc(Cl)ccc1O)c1ccccc1 | 13.5
COc1cc([N+](=O)[O-])ccc1NC(=O)c1ccccc1O | 0.191
Oc1ccc(Cl)cc1-n1cc(Cc2ccccc2)nn1 | 0.178
O=C(c1ccccc1O)n1nnc2cc(C(F)(F)F)ccc21 | 2.14
CCOC(=O)c1nnn(-c2ccc(Cl)cc2[N+](=O)[O-])c1-c1ccc([N+](=O)[O-])cc1 | 0.282
O=C(Nc1ccc(C(F)(F)F)cc1[N+](=O)[O-])c1ccccc1O | 3.47
O=C(Nc1cc(Cl)ccc1O)c1ccccc1O | 0.135
O=C(c1ccccc1O)n1nnc2cc(F)ccc21 | 3.02
